8 cell lines from the supplement of paper PMC10307832 can be followed below.

Common to all, as to experiment: relative viability (nuclei count vs DMSO), 5 days (fraction); higher = more cells survive
Compound in the assay “BMX-IN-1 + Navitoclax”: C=CC(=O)Nc1cc(-n2c(=O)ccc3cnc4ccc(-c5ccc(NS(C)(=O)=O)cc5)cc4c32)ccc1C [BMX-IN-1] + CC1(C)CCC(c2ccc(Cl)cc2)=C(CN2CCN(c3ccc(C(=O)NS(=O)(=O)c4ccc(N[C@H](CCN5CCOCC5)CSc5ccccc5)c(S(=O)(=O)C(F)(F)F)c4)cc3)CC2)C1 [Navitoclax] (partner 0.5 µM)
Summed up:
(§1)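 Nuclei were stained with Hoechst during a one-step fixation (final 0.05% Triton X-100, 1% formaldehyde, 1 ug/ml Hoechst) carried out 5 days after dosing, then counted on 4× images. The cells, lung cancer lines in 1536-well plates, had been dosed by pin tool the day after seeding with one drug alone or a fixed anchor-drug dose plus five library-drug doses (not always all listed) in √10 steps. Relative viability is the nuclei count in treated wells divided by that in vehicle wells, and each value is the median of duplicate plates.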

Compound in the assay “Ibrutinib + Dasatinib”: C=CC(=O)N1CCC[C@@H](n2nc(-c3ccc(Oc4ccccc4)cc3)c3c(N)ncnc32)C1 [Ibrutinib] + Cc1nc(Nc2ncc(C(=O)Nc3c(C)cccc3Cl)s2)cc(N2CCN(CCO)CC2)n1 [Dasatinib] (partner 0.075 µM)
Summed up: as §1

Compound in the assay “BMX-IN-1 + Palbociclib”: C=CC(=O)Nc1cc(-n2c(=O)ccc3cnc4ccc(-c5ccc(NS(C)(=O)=O)cc5)cc4c32)ccc1C [BMX-IN-1] + CC(=O)c1c(C)c2cnc(Nc3ccc(N4CCNCC4)cn3)nc2n(C2CCCC2)c1=O [Palbociclib] (partner 0.5 µM)
Summed up: as §1

Compound in the assay “BMX-IN-1 + Pemetrexed”: C=CC(=O)Nc1cc(-n2c(=O)ccc3cnc4ccc(-c5ccc(NS(C)(=O)=O)cc5)cc4c32)ccc1C [BMX-IN-1] + Nc1nc2[nH]cc(CCc3ccc(C(=O)N[C@@H](CCC(=O)O)C(=O)O)cc3)c2c(=O)[nH]1 [Pemetrexed] (partner 0.2 µM)
Summed up: as §1

As for RERF-LC-KJ, the relative viability with BMX-IN-1 + Navitoclax (first compound 0.02 µM) was found to be 0.821; in the assay with BMX-IN-1 + Navitoclax (first compound 0.2 µM), 0.994; in the assay with BMX-IN-1 + Navitoclax (first compound 0.6325 µM) it was 1.3; in the assay with BMX-IN-1 + Navitoclax (first compound 2 µM), 0.749; with Ibrutinib + Dasatinib (first compound 0.005 µM), 0.936; in the assay with Ibrutinib + Dasatinib (first compound 0.01581 µM), 0.637. Further, the relative viability with Ibrutinib + Dasatinib (first compound 0.05 µM) was 0.757; in the assay with Ibrutinib + Dasatinib (first compound 0.1581 µM), 0.85; with Ibrutinib + Dasatinib (first compound 0.5 µM) it was 0.88; with BMX-IN-1 + Palbociclib (first compound 0.02 µM), 1.15; in the assay with BMX-IN-1 + Palbociclib (first compound 0.2 µM) it was 1.11; with BMX-IN-1 + Palbociclib (first compound 0.6325 µM) it was 1.18. Also, the relative viability in the assay with BMX-IN-1 + Palbociclib (first compound 2 µM) stood at 1.16; with BMX-IN-1 + Pemetrexed (first compound 0.02 µM), 0.468; with BMX-IN-1 + Pemetrexed (first compound 0.2 µM), 0.448; with BMX-IN-1 + Pemetrexed (first compound 0.6325 µM), 0.48; in the assay with BMX-IN-1 + Pemetrexed (first compound 2 µM), 0.456.

For the cell line HCC-15, the relative viability was 0.768 in the assay with BMX-IN-1 + Navitoclax (first compound 0.02 µM); 0.726 with BMX-IN-1 + Navitoclax (first compound 0.2 µM); 0.706 in the assay with BMX-IN-1 + Navitoclax (first compound 0.6325 µM); 0.73 in the assay with BMX-IN-1 + Navitoclax (first compound 2 µM); 0.678 with Ibrutinib + Dasatinib (first compound 0.005 µM); 0.615 in the assay with Ibrutinib + Dasatinib (first compound 0.01581 µM). For the same cell line, the relative viability with Ibrutinib + Dasatinib (first compound 0.05 µM) turned out to be 0.637; in the assay with Ibrutinib + Dasatinib (first compound 0.1581 µM), 0.51; in the assay with Ibrutinib + Dasatinib (first compound 0.5 µM), 0.66; with BMX-IN-1 + Palbociclib (first compound 0.02 µM), 0.844; in the assay with BMX-IN-1 + Palbociclib (first compound 0.2 µM) it was 0.762; in the assay with BMX-IN-1 + Palbociclib (first compound 0.6325 µM), 0.84. For the same cell line, the relative viability in the assay with BMX-IN-1 + Palbociclib (first compound 2 µM) was found to be 0.802; in the assay with BMX-IN-1 + Pemetrexed (first compound 0.02 µM), 0.2; with BMX-IN-1 + Pemetrexed (first compound 0.2 µM), 0.218; in the assay with BMX-IN-1 + Pemetrexed (first compound 0.6325 µM) it was 0.192; in the assay with BMX-IN-1 + Pemetrexed (first compound 2 µM), 0.218.

For the cell line NCI-H1755, the relative viability was 1.01 with BMX-IN-1 + Navitoclax (first compound 0.02 µM); 1.05 with BMX-IN-1 + Navitoclax (first compound 0.2 µM); 1.07 with BMX-IN-1 + Navitoclax (first compound 0.6325 µM); 1.03 with BMX-IN-1 + Navitoclax (first compound 2 µM); 0.478 with Ibrutinib + Dasatinib (first compound 0.005 µM); 0.365 in the assay with Ibrutinib + Dasatinib (first compound 0.01581 µM). Moreover, the relative viability in the assay with Ibrutinib + Dasatinib (first compound 0.05 µM) is 0.444; with Ibrutinib + Dasatinib (first compound 0.1581 µM), 0.484; with Ibrutinib + Dasatinib (first compound 0.5 µM) it was 0.383; in the assay with BMX-IN-1 + Palbociclib (first compound 0.02 µM) it was 0.394; with BMX-IN-1 + Palbociclib (first compound 0.2 µM), 0.439; in the assay with BMX-IN-1 + Palbociclib (first compound 0.6325 µM) it was 0.509. Moreover, the relative viability in the assay with BMX-IN-1 + Palbociclib (first compound 2 µM) turned out to be 0.422; with BMX-IN-1 + Pemetrexed (first compound 0.02 µM), 0.41; with BMX-IN-1 + Pemetrexed (first compound 0.2 µM), 0.6; with BMX-IN-1 + Pemetrexed (first compound 0.6325 µM) it was 0.39; with BMX-IN-1 + Pemetrexed (first compound 2 µM), 0.552.

As for NCI-H441, the relative viability with BMX-IN-1 + Navitoclax (first compound 0.02 µM) amounted to 0.466; with BMX-IN-1 + Navitoclax (first compound 0.2 µM), 0.85; with BMX-IN-1 + Navitoclax (first compound 0.6325 µM), 1.08; in the assay with BMX-IN-1 + Navitoclax (first compound 2 µM), 0.755; in the assay with Ibrutinib + Dasatinib (first compound 0.005 µM), 0.638; with Ibrutinib + Dasatinib (first compound 0.01581 µM), 0.649. Besides, the relative viability in the assay with Ibrutinib + Dasatinib (first compound 0.05 µM) is 0.729; with Ibrutinib + Dasatinib (first compound 0.1581 µM) it was 0.571; with Ibrutinib + Dasatinib (first compound 0.5 µM) it was 0.55; with BMX-IN-1 + Palbociclib (first compound 0.02 µM), 0.199; with BMX-IN-1 + Palbociclib (first compound 0.2 µM), 0.205; with BMX-IN-1 + Palbociclib (first compound 0.6325 µM), 0.234. Also, the relative viability with BMX-IN-1 + Palbociclib (first compound 2 µM) is 0.21; with BMX-IN-1 + Pemetrexed (first compound 0.02 µM) it was 0.225; in the assay with BMX-IN-1 + Pemetrexed (first compound 0.2 µM), 0.267; with BMX-IN-1 + Pemetrexed (first compound 0.6325 µM), 0.282; with BMX-IN-1 + Pemetrexed (first compound 2 µM), 0.256.

As to HOP-62, the relative viability with BMX-IN-1 + Navitoclax (first compound 0.02 µM) is 1.42; with BMX-IN-1 + Navitoclax (first compound 0.2 µM), 1.17; with BMX-IN-1 + Navitoclax (first compound 0.6325 µM), 1.21; with BMX-IN-1 + Navitoclax (first compound 2 µM) it was 1.12; with Ibrutinib + Dasatinib (first compound 0.005 µM) it was 0.664; with Ibrutinib + Dasatinib (first compound 0.01581 µM) it was 0.517. The relative viability was 0.708 in the assay with Ibrutinib + Dasatinib (first compound 0.05 µM); 0.563 with Ibrutinib + Dasatinib (first compound 0.1581 µM); 0.648 in the assay with Ibrutinib + Dasatinib (first compound 0.5 µM); 0.53 in the assay with BMX-IN-1 + Palbociclib (first compound 0.02 µM); 0.543 in the assay with BMX-IN-1 + Palbociclib (first compound 0.2 µM); 0.48 in the assay with BMX-IN-1 + Palbociclib (first compound 0.6325 µM). The relative viability with BMX-IN-1 + Palbociclib (first compound 2 µM) was 0.471; with BMX-IN-1 + Pemetrexed (first compound 0.02 µM), 0.267; in the assay with BMX-IN-1 + Pemetrexed (first compound 0.2 µM) it was 0.364; with BMX-IN-1 + Pemetrexed (first compound 0.6325 µM) it was 0.342; with BMX-IN-1 + Pemetrexed (first compound 2 µM), 0.223.

With UMC-11, the relative viability with BMX-IN-1 + Navitoclax (first compound 0.02 µM) was determined as 0.285; with BMX-IN-1 + Navitoclax (first compound 0.2 µM), 0.327; with BMX-IN-1 + Navitoclax (first compound 0.6325 µM) it was 0.283; with BMX-IN-1 + Navitoclax (first compound 2 µM), 0.294; with Ibrutinib + Dasatinib (first compound 0.005 µM) it was 0.417; in the assay with Ibrutinib + Dasatinib (first compound 0.01581 µM), 0.411. For the same cell line, the relative viability came out at 0.485 with Ibrutinib + Dasatinib (first compound 0.05 µM); 0.548 with Ibrutinib + Dasatinib (first compound 0.1581 µM); 0.486 with Ibrutinib + Dasatinib (first compound 0.5 µM); 0.345 with BMX-IN-1 + Palbociclib (first compound 0.02 µM); 0.336 with BMX-IN-1 + Palbociclib (first compound 0.2 µM); 0.341 in the assay with BMX-IN-1 + Palbociclib (first compound 0.6325 µM). Also, the relative viability with BMX-IN-1 + Palbociclib (first compound 2 µM) was 0.318; with BMX-IN-1 + Pemetrexed (first compound 0.02 µM) it was 0.92; in the assay with BMX-IN-1 + Pemetrexed (first compound 0.2 µM), 0.792; with BMX-IN-1 + Pemetrexed (first compound 0.6325 µM), 0.754; in the assay with BMX-IN-1 + Pemetrexed (first compound 2 µM), 0.754.

Take BEN: the relative viability came out at 0.066 with BMX-IN-1 + Navitoclax (first compound 0.02 µM); 0.0691 with BMX-IN-1 + Navitoclax (first compound 0.2 µM); 0.224 with BMX-IN-1 + Navitoclax (first compound 0.6325 µM); 0.0676 with BMX-IN-1 + Navitoclax (first compound 2 µM); 0.291 with Ibrutinib + Dasatinib (first compound 0.01581 µM); 0.232 in the assay with Ibrutinib + Dasatinib (first compound 0.05 µM). In addition, the relative viability was found to be 0.273 with Ibrutinib + Dasatinib (first compound 0.1581 µM); 0.314 with Ibrutinib + Dasatinib (first compound 0.5 µM); 0.489 in the assay with BMX-IN-1 + Palbociclib (first compound 0.02 µM); 0.479 with BMX-IN-1 + Palbociclib (first compound 0.2 µM); 0.479 with BMX-IN-1 + Palbociclib (first compound 0.6325 µM); 0.518 with BMX-IN-1 + Palbociclib (first compound 2 µM). Also, the relative viability in the assay with BMX-IN-1 + Pemetrexed (first compound 0.02 µM) was found to be 0.701; with BMX-IN-1 + Pemetrexed (first compound 0.2 µM), 0.768; with BMX-IN-1 + Pemetrexed (first compound 0.6325 µM) it was 0.866; with BMX-IN-1 + Pemetrexed (first compound 2 µM), 0.708.

For ChaGo-K-1, the relative viability was 0.937 with BMX-IN-1 + Navitoclax (first compound 0.02 µM); 0.988 with BMX-IN-1 + Navitoclax (first compound 0.2 µM); 1.27 with BMX-IN-1 + Navitoclax (first compound 0.6325 µM); 0.531 in the assay with BMX-IN-1 + Navitoclax (first compound 2 µM); 0.599 in the assay with Ibrutinib + Dasatinib (first compound 0.005 µM); 0.479 with Ibrutinib + Dasatinib (first compound 0.01581 µM). The relative viability with Ibrutinib + Dasatinib (first compound 0.05 µM) amounted to 0.553; with Ibrutinib + Dasatinib (first compound 0.1581 µM), 0.485; with Ibrutinib + Dasatinib (first compound 0.5 µM), 0.587; with BMX-IN-1 + Palbociclib (first compound 0.02 µM) it was 0.996; in the assay with BMX-IN-1 + Palbociclib (first compound 0.2 µM), 1.13; with BMX-IN-1 + Palbociclib (first compound 0.6325 µM), 0.905. Besides, the relative viability in the assay with BMX-IN-1 + Palbociclib (first compound 2 µM) was found to be 0.987; with BMX-IN-1 + Pemetrexed (first compound 0.02 µM), 0.238; in the assay with BMX-IN-1 + Pemetrexed (first compound 0.2 µM), 0.305; with BMX-IN-1 + Pemetrexed (first compound 0.6325 µM), 0.25; with BMX-IN-1 + Pemetrexed (first compound 2 µM) it was 0.39.
